{
  "source": "paper PMC12956279",
  "about": "(2026)",
  "assay_in_all_cases": "fluorescence titration (light-up), quadratic fit",
  "settings_in_all_cases": "100 mM KCl, 1 mM MgCl2; 40 mM HEPES pH 7.4 (7.5 in Results), room temperature; 1 µM dye, DNA varied",
  "key": {"[1]": {"system": "4LE-v4 (DNA, aptamer) TCCTTCGCACAGCACACCTGCCGTATAGCTCTGAATCAAGGATTTTAGGGAGGCGATTAGTAGGGATGATGCGGCAGTGGGCTTCGCAGAACAGTGTTTATTCTGCGAGGGGACTATCCTCCTGCC"}, "[2]": {"system": "8LE-v4 (DNA, aptamer) TCCTTCGCACAGCACACCTGCCGTATAGCTCTGAATCAAGGATTTTAGGGAGGCGATGTCTTAGTAGGGATGATGCGGCAGTGGGCTTCGCAGAACAGTGTTTATTCTGCGAGGGGACTAAGACTCCTCCTGCC"}, "[3]": {"system": "11LE (11LE-v4) (DNA, aptamer) TCCTTCGCACAGCACACCTGCCGTATAGCTCTGAATCAAGGATTTTAGGGAGGCGATGGTGTCTTAGTAGGGATGATGCGGCAGTGGGCTTCGCAGAACAGTGTTTATTCTGCGAGGGGACTAAGACTCCTCCTCCTGCC"}, "[4]": {"system": "FLE (FLE-v4) (DNA, aptamer) TCCTTCGCACAGCACACCTGCCGTATAGCTCTGAATCAAGGATTTTAGGGAGGCGATAACGTGCTCAAGGTGTCTTAGTAGGGATGATGCGGCAGTGGGCTTCGCAGAACAGTGTTTATTCTGCGAGGGGACTAAGACTCCTTCAGCAAGTTAAGCTCCTCCTGCC"}},
  "data": [
    {"smiles": "CC1=N/C(=C\\c2cc(F)c(O)c(F)c2)C(=O)N1CC(F)(F)F", "values": [
      {"measurement": "KD", "setting": "[1]", "value": "6 (4.93, 7.18, 95% CI) µM"},
      {"measurement": "KD", "setting": "[2]", "value": "0.04 (0.01, 0.12, 95% CI) µM"},
      {"measurement": "KD", "setting": "[3]", "value": "0.01 (0.01, 0.07, 95% CI) µM"},
      {"measurement": "KD", "setting": "[4]", "value": "0.07 (0.01, 0.16, 95% CI) µM"}
    ]}
  ]
}
